Experiments:
[1] = test system: alpha-glucosidase (Saccharomyces cerevisiae); test: Inhibitory activity against alpha-glucosidase of yeast; No inhibition
[2] = test system: Alpha-glucosidase (Saccharomyces cerevisiae); test: Inhibitory activity against alpha-glucosidase of yeast at a concentration of 0.1 mM

Ki [1]: Not Active
inhibition [2]: < 20%
SMILES: C[C@@H]1NC[C@@H](CO)[C@@H](O)[C@@H]1O

From ChEMBL document CHEMBL1131954, “Homoisofagomines: chemical-enzymatic synthesis and evaluation as alpha- and beta-glucosidase inhibitors” (Bioorg Med Chem Lett, 1999)
